The source of these data is US20110123482A1, “Methods of Treating Neurological Autoimmune Disorders with Cyclophosphamide” (The Johns Hopkins University, priority 2007, published 2011).

Read-outs that look alike come from different tables or passages of the source.

Assay [1] concerns chronic relapsing experimental autoimmune encephalomyelitis (R-EAE) in SJL/J mice. The note with it: mouse, in vivo.
For assay [2], the system named is RRMS. The note with it: cited from earlier work.
The test system of assay [3] is class II MHC molecules. The note with it: cited from earlier work.

Consider `O=P1(N(CCCl)CCCl)NCCCO1` (stereo not drawn) [CPA, N,N-bis(2-chloroethyl)-1,3,2-oxazaphosphinan-2-amine 2-oxide], for which, in assay [1], the “rate of induced relapse with PLP reimmunization following CPA treatment” value is recorded as 70% and the “spontaneous relapse rate of RR-EAE following CPA treatment” value is on record as 30%. For the same compound, the “cessation of EAE activity, share of animals” value in assay [1] (200 mg/kg) worked out at 95%.

Consider glatiramer acetate, for which the “time of treatment to reduce the number of lesions and relapses” value in assay [2] (20 mg GA, compared to placebo controls) was “approximately 3 months”. Moreover, the “time of treatment to reduce the number of lesions and relapses” value in assay [2] (40 mg daily, compared to controls) is on record as “less than 3 months”. Besides, the “binding affinity to class II MHC molecules” value in assay [3] is given as “binds with high affinity”. In addition, in assay [1], the induced relapse rate was determined as 10%, the “rate of cessation of EAE activity by CPA” value is listed as 95% and the spontaneous relapse rate amounted to 2%.
